Our source for the EC50, Ki and Efficacy values is ChEMBL document CHEMBL1131299 (J Med Chem, 1998).

For assay [1], the target named is T1, Progesterone receptor (Homo sapiens, UniProt P06401).
T1 sequence (P06401 whole entry): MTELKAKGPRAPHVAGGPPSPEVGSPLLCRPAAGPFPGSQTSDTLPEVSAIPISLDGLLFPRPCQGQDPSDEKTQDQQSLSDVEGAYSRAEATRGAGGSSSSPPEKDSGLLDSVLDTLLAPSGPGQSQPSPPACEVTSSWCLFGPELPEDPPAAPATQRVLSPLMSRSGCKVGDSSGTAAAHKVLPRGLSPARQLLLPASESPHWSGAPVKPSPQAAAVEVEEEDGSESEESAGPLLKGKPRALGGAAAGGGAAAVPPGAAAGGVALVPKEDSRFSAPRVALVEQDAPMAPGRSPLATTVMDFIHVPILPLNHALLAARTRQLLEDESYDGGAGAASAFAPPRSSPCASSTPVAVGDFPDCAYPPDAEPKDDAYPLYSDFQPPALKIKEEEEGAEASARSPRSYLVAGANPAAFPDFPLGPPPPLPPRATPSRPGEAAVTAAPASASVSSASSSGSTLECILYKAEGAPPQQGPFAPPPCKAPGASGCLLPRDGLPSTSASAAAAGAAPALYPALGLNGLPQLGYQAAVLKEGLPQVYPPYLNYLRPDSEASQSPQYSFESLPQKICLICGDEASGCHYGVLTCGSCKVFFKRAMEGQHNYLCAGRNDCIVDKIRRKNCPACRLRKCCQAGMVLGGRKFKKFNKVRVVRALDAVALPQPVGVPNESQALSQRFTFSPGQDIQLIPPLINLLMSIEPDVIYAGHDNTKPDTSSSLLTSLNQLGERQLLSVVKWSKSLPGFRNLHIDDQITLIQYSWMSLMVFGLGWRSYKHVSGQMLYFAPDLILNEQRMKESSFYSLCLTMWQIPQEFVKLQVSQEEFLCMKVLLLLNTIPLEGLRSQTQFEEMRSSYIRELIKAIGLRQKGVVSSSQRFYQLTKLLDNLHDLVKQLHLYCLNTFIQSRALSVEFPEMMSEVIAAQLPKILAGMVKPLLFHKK
The assay can be described thus: Agonistic activity was measured for modulation of hPR-B (human progesterone receptor) in co-transfected CV-1 cells. Type of assay: functional, cell-based.

Assay [2] deals with T1, Progesterone receptor. The assay can be described thus: The binding affinity measured using baculovirus-expressed hPR-A in sf21 cells.
The species named for assay [3] is Rattus norvegicus. The assay can be described thus: Compound was Dawley rats expressed as response to MPA at […]. Type of assay: functional.

`CC1=CC(C)(C)Nc2ccc3c(c21)C(c1cccc(Cl)c1)Oc1ccc(F)cc1-3` (stereo not drawn) had a concentration for a half-maximal effect (EC50) in assay [1] of 2.8 nM. Also, the Ki in assay [2] worked out at 0.32 nM.

For `CC1=CC(C)(C)Nc2ccc3c(c21)C(c1ccc(F)c(C)c1)Oc1ccc(F)cc1-3` (stereo not drawn), in assay [1], the EC50 was determined as 15 nM. The molecule also came in with a Ki in assay [2] of 1.3 nM.

Take `CC1=CC(C)(C)Nc2ccc3c(c21)C(c1cccc(C)c1)Oc1ccc(Cl)cc1-3` (stereo not drawn): the EC50 in assay [1] came to 7.1 nM. For the same molecule, the Ki in assay [2] is 0.55 nM.

The molecule `CC1=CC(C)(C)Nc2ccc3c(c21)C(c1cccc(C(F)(F)F)c1)Oc1ccc(Cl)cc1-3` (stereo not drawn) returned a Ki in assay [2] of 1.1 nM. In other words, the single-digit nanomolar range.

Molecule `CC1=CC(C)(C)Nc2ccc3c(c21)C(c1ccc(F)c(C)c1)Oc1ccc(Cl)cc1-3` (stereo not drawn) registered an EC50 in assay [1] of 9.5 nM. The molecule also came in with a Ki in assay [2] of 1.3 nM.

Take `CC(=O)O[C@]1(C(C)=O)CC[C@H]2[C@@H]3C[C@H](C)C4=CC(=O)CC[C@]4(C)[C@H]3CC[C@@]21C` [MEDROXYPROGESTERONE ACETATE]: the Efficacy in assay [3] is on record as 100%.

The molecule `CC1=CC(C)(C)Nc2ccc3c(c21)C(c1ccc(Cl)c(C)c1)Oc1ccc(Cl)cc1-3` (stereo not drawn) yielded a Ki in assay [2] of 0.5 nM.

`CC1=CC(C)(C)Nc2ccc3c(c21)C(c1cccc(Cl)c1)Oc1ccc(Cl)cc1-3` (stereo not drawn) gave a concentration giving a half-maximal response (EC50) in assay [1] of 3.6 nM. Also, in assay [2], the Ki is 0.48 nM.

On to `CC1=CC(C)(C)Nc2ccc3c(c21)C(c1ccc(Cl)c(C)c1)Oc1ccc(F)cc1-3` (stereo not drawn), for which a half-maximal response in assay [1] (EC50) required 2.7 nM. The molecule also had a Ki in assay [2] of 0.49 nM.

`CC1=CC(C)(C)Nc2ccc3c(c21)C(c1ccc(Cl)cc1)Oc1ccccc1-3` (stereo not drawn) gave an EC50 in assay [1] of 15 nM. That is a double-digit nanomolar value.

In assay [1], `CC1=CC(C)(C)Nc2ccc3c(c21)C(c1ccc(Br)cc1)Oc1ccc(Cl)cc1-3` (stereo not drawn) came in with an EC50 of 5.2 nM. This molecule also returned an Efficacy in assay [3] of 60%. The affinity in assay [2] corresponds to a Ki of 0.59 nM.

With `CC1=CC(C)(C)Nc2ccc3c(c21)C(c1ccccc1)Oc1ccc(F)cc1-3` (stereo not drawn), the EC50 in assay [1] was 7.4 nM. This molecule also showed a Ki in assay [2] of 2.2 nM.

Turning to `CC1=CC(C)(C)Nc2ccc3c(c21)C(c1ccc(Cl)cc1)Oc1cc(F)ccc1-3` (stereo not drawn), the response in assay [1] was half-maximal at 10 nM (EC50). The affinity in assay [2] corresponds to a Ki of 2.7 nM.

For `COc1ccc2c(c1)-c1ccc3c(c1C(c1ccc(Cl)cc1)O2)C(C)=CC(C)(C)N3` (stereo not drawn), the EC50 in assay [1] was found to be 3.1 nM. In addition, the affinity in assay [2], expressed as Ki, was 2.4 nM.

In assay [1], `CC1=CC(C)(C)Nc2ccc3c(c21)C(c1cccc(C(F)(F)F)c1)Oc1ccc(F)cc1-3` (stereo not drawn) gave an EC50 of 10 nM. Further, the Ki in assay [2] is 0.78 nM.

Molecule `CC1=CC(C)(C)Nc2ccc3c(c21)C(c1ccc(Cl)cc1)Oc1ccc(F)cc1-3` (stereo not drawn) came in with an EC50 in assay [1] of 8.1 nM. Further, the Efficacy in assay [3] is listed as 116%. For the same molecule, the Ki in assay [2] was 0.32 nM.

For `CC1=CC(C)(C)Nc2ccc3c(c21)C(c1cccc(F)c1)Oc1ccc(Cl)cc1-3` (stereo not drawn), the EC50 in assay [1] was determined as 3.7 nM. In assay [2], the Ki is 0.34 nM.

For `CC1=CC(C)(C)Nc2ccc3c(c21)C(c1cccc(C)c1)Oc1ccc(F)cc1-3` (stereo not drawn), the EC50 in assay [1] worked out at 5 nM. This molecule also yielded a Ki in assay [2] of 0.37 nM.

`CC1=CC(C)(C)Nc2ccc3c(c21)C(c1ccc(Cl)cc1)Oc1ccc(Cl)cc1-3` (stereo not drawn) showed an EC50 in assay [1] of 9 nM. The molecule also showed an Efficacy in assay [3] of 108%. This molecule also yielded a Ki in assay [2] of 0.59 nM.

With `CC1=CC(C)(C)Nc2ccc3c(c21)C(c1ccccc1)Oc1ccc(Cl)cc1-3` (stereo not drawn), a half-maximal response in assay [1] (EC50) required 6.9 nM. This molecule came in with a Ki in assay [2] of 0.74 nM.

`COc1ccc(C2Oc3ccc(Cl)cc3-c3ccc4c(c32)C(C)=CC(C)(C)N4)cc1` (stereo not drawn) displayed an EC50 in assay [1] of 13 nM. Further, affinity in assay [2] was put at a Ki of 0.93 nM.

In the case of `COc1ccc(C2Oc3ccc(F)cc3-c3ccc4c(c32)C(C)=CC(C)(C)N4)cc1` (stereo not drawn), a half-maximal effect in assay [1] (EC50) was put at 270 nM. This molecule also returned a Ki in assay [2] of 2.7 nM.

By EC50 is commonly meant the concentration that produces a half-maximal response. The term Ki denotes a measure of affinity in units of concentration, obtained from inhibition or displacement. Read a high Ki as weaker binding.
